Data taken from patent US20230061736A1, “GPR119 AGONISTS” (Kallyope, Inc., priority 2019, published 2023).

Target: T1, human GPR119 (hGPR119) (Homo sapiens, UniProt Q8TDV5)
T1 construct: expressed in transfected cells
T1 sequence (Q8TDV5 1-335): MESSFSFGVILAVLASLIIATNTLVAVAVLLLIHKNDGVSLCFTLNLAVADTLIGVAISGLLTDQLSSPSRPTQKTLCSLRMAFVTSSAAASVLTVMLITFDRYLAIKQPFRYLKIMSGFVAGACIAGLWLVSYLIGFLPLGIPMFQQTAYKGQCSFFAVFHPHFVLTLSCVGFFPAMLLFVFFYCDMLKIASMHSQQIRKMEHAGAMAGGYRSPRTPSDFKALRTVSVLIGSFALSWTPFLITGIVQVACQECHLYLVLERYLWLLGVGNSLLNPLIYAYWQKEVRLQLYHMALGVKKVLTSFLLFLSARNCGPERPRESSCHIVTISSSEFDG
Test: cAMP accumulation assay (cAMP Gs dynamic HTRF kit)
Format: cell-based
Settings: CHO-K1 cells stably expressing hGPR119, 4-parameter fit; for Emax: 1 h, % activity normalized to Max/Min controls; for EC50: cAMP accumulation
Summary of the method: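 Read-out is HTRF 665/620 nm ratio after 1 h detection at ambient temperature, converted to % activity against positive and negative controls, EC50 and Max activity by 4-parameter fit. Compounds were titrated onto ~10,000 thawed hGPR119-CHO-K1 cells/well for 60 min at 37° C/5% CO2.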

Row | SMILES | Emax | EC50
1 | O=C(Cc1ccc(OCCCC2CCN(c3ncc(Cl)cn3)CC2)cn1)N1CC(CNC[C@H](O)[C@@H](O)[C@H](O)[C@H](O)CO)C1 [Example 169, 2-[5-[3-[1-(5-chloropyrimidin-2-yl)-4-piperidyl]propoxy]-2-pyridyl]-1-[3-[[[(2S,3R,4R,5R)-2,3,4,5,6-pentahydroxyhexyl]amino]methyl]azetidin-1-yl]ethanone] | 100 to 130% | 1000 to 10000 nM
2 | O=C(Cc1ncc(OCCCC2CCN(c3ncc(Cl)cn3)CC2)cc1F)N1CC(CNC[C@H](O)[C@@H](O)[C@H](O)[C@H](O)CO)C1 [Example 170, 2-[5-[3-[1-(5-chloropyrimidin-2-yl)-4-piperidyl]propoxy]-3-fluoro-2-pyridyl]-1-[3-[[[(2S,3R,4R,5R)-2,3,4,5,6-pentahydroxyhexyl]amino]methyl]azetidin-1-yl]ethanone] | 100 to 130% | 100 to 1000 nM
3 | O=C(NCCS(=O)(=O)O)C1CN(C(=O)Cc2ccc(OCCCC3CCN(c4ncc(Cl)cn4)CC3)cc2F)C1 [Example 171, 2-[[1-[2-[4-[3-[1-(5-chloropyrimidin-2-yl)-4-piperidyl]propoxy]-2-fluoro-phenyl]acetyl]azetidine-3-carbonyl]amino]ethanesulfonic acid] | 100 to 130% | 100 to 1000 nM
4 | O=C(NCCCCS(=O)(=O)O)C1CN(C(=O)Cc2ccc(OCCCC3CCN(c4ncc(Cl)cn4)CC3)cc2F)C1 [Example 173, 4-[[1-[2-[4-[3-[1-(5-chloropyrimidin-2-yl)-4-piperidyl]propoxy]-2-fluoro-phenyl]acetyl]azetidine-3-carbonyl]amino] butane-1-sulfonic acid] | 100 to 130% | 
5 | O=C(NCCCCCS(=O)(=O)O)C1CN(C(=O)Cc2ccc(OCCCC3CCN(c4ncc(Cl)cn4)CC3)cc2F)C1 [Example 174, 5-[[1-[2-[4-[3-[1-(5-chloropyrimidin-2-yl)-4-piperidyl]propoxy]-2-fluoro-phenyl]acetyl]azetidine-3-carbonyl]amino]pentane-1-sulfonic acid] | 100 to 130% | 100 to 1000 nM
6 | O=C(NCCCCCCS(=O)(=O)O)C1CN(C(=O)Cc2ccc(OCCCC3CCN(c4ncc(Cl)cn4)CC3)cc2F)C1 [Example 175, 6-[[1-[2-[4-[3-[1-(5-chloropyrimidin-2-yl)-4-piperidyl]propoxy]-2-fluoro-phenyl]acetyl]azetidine-3-carbonyl]amino]hexane-1-sulfonic acid] | 100 to 130% | 100 to 1000 nM
7 | O=C(CC1CN(C(=O)Cc2ccc(OCCCC3CCN(c4ncc(Cl)cn4)CC3)cc2F)C1)NCCS(=O)(=O)O [Example 176, 2-[[2-[1-[2-[4-[3-[1-(5-chloropyrimidin-2-yl)-4-piperidyl]propoxy]-2-fluoro-phenyl]acetyl]azetidin-3-yl]acetyl]amino]ethanesulfonic acid] | 100 to 130% | 100 to 1000 nM
8 | O=C(CC1CN(C(=O)Cc2ccc(OCCCC3CCN(c4ncc(Cl)cn4)CC3)cc2F)C1)NCCCS(=O)(=O)O [Example 177, 3-[[2-[1-[2-[4-[3-[1-(5-chloropyrimidin-2-yl)-4-piperidyl]propoxy]-2-fluoro-phenyl]acetyl]azetidin-3-yl]acetyl]amino]propane-1-sulfonic acid] | 100 to 130% | 100 to 1000 nM
9 | O=C(CC1CN(C(=O)Cc2ccc(OCCCC3CCN(c4ncc(Cl)cn4)CC3)cc2F)C1)NCCCCS(=O)(=O)O [Example 178, 4-[[2-[1-[2-[4-[3-[1-(5-chloropyrimidin-2-yl)-4-piperidyl]propoxy]-2-fluoro-phenyl]acetyl]azetidin-3-yl]acetyl]amino]butane-1-sulfonic acid] | 100 to 130% | 100 to 1000 nM
10 | O=C(Cc1ccc(OCCCC2CCN(c3ncc(Cl)cn3)CC2)nc1)N1CC(CNC[C@H](O)[C@@H](O)[C@H](O)[C@H](O)CO)C1 [Example 179, 2-[6-[3-[1-(5-chloropyrimidin-2-yl)-4-piperidyl]propoxy]-3-pyridyl]-1-[3-[[[(2S,3R,4R,5R)-2,3,4,5,6-pentahydroxyhexyl]amino]methyl]azetidin-1-yl]ethanone] | 100 to 130% | 1000 to 10000 nM
11 | O=C(Cc1ccc(OCCCC2CCN(c3ncc(Cl)cn3)CC2)cc1F)N1CCC(O)(CNCC(CO)(CO)CO)C1 (stereo not shown) [Example 180, 2-[4-[3-[1-(5-chloropyrimidin-2-yl)-4-piperidyl]propoxy]-2-fluoro-phenyl]-1-[3-hydroxy-3-[[[3-hydroxy-2,2-bis(hydroxymethyl)propyl]amino]methyl]pyrrolidin-1-yl]ethanone] | 100 to 130% | ≤ 100 nM
12 | O=C(Cc1ccc(OCCCC2CCN(c3ncc(Cl)cn3)CC2)cc1F)N1CCC(O)(C(=O)NC[C@H](O)[C@@H](O)[C@H](O)[C@H](O)CO)C1 (stereo partly drawn) [Example 181, 1-[2-[4-[3-[1-(5-chloropyrimidin-2-yl)-4-piperidyl]propoxy]-2-fluoro-phenyl]acetyl]-3-hydroxy-N-[(2S,3R,4R,5R)-2,3,4,5,6-pentahydroxyhexyl]pyrrolidine-3-carboxamide] | 100 to 130% | ≤ 100 nM
13 | O=C(Cc1ccc(OCCCC2CCN(c3ncc(Cl)cn3)CC2)cc1F)N1CCC(O)(C(=O)NCC(CO)(CO)CO)C1 (stereo not shown) [Example 182, 1-[2-[4-[3-[1-(5-chloropyrimidin-2-yl)-4-piperidyl]propoxy]-2-fluoro-phenyl]acetyl]-3-hydroxy-N-[3-hydroxy-2,2-bis (hydroxymethyl)propyl]pyrrolidine-3-carboxamide] | 100 to 130% | ≤ 100 nM
14 | O=C(Cc1ccc(OCCCC2CCN(c3ncc(Cl)cn3)CC2)cc1F)N1CCC(O)(CNCC(CO)(CO)CO)CC1 [Example 183, 2-[4-[3-[1-(5-chloropyrimidin-2-yl)-4-piperidyl]propoxy]-2-fluoro-phenyl]-1-[4-hydroxy-4-[[[3-hydroxy-2,2-bis (hydroxymethyl)propyl]amino]methyl]-1-piperidyl]ethanone] | 100 to 130% | ≤ 100 nM
15 | O=C(CC1(O)CN(C(=O)Cc2ccc(OCCCC3CCN(c4ncc(Cl)cn4)CC3)cc2F)C1)NCC(CO)(CO)CO [Example 184, 2-[1-[2-[4-[3-[1-(5-chloropyrimidin-2-yl)-4-piperidyl]propoxy]-2-fluoro-phenyl]acetyl]-3-hydroxy-azetidin-3-yl]-N-[3-hydroxy-2,2-bis(hydroxymethyl)propyl]acetamide] | 100 to 130% | ≤ 100 nM

The remaining lines, values ahead:

Row | Emax | EC50 | SMILES
16 | 100 to 130% | ≤ 100 nM | COCc1cnc(N2CCC([C@H]3C[C@H]3CCOc3ccc(CC(=O)N4CC[C@@H](CNCC(CO)(CO)CO)C4)c(F)c3)CC2)nc1 [Example 163, 2-[2-fluoro-4-[2-[(1S,2R)-2-[1-[5-(methoxymethyl)pyrimidin-2-yl]-4-piperidyl]cyclopropyl]ethoxy]phenyl]-1-[(3S)-3-[[[3-hydroxy-2,2-bis(hydroxymethyl)propyl]amino]methyl]pyrrolidin-1-yl]ethanone]
17 | 100 to 130% | ≤ 100 nM | O=C(Cc1ccc(OCCCC2CCN(c3ncc(Cl)cn3)CC2)cc1F)N1CC(CCNC[C@H](O)[C@H](O)[C@H](O)CO)C1 [Example 164, 2-[4-[3-[1-(5-chloropyrimidin-2-yl)-4-piperidyl]propoxy]-2-fluoro-phenyl]-1-[3-[2-[[(2S,3S,4R)-2,3,4,5-tetrahydroxypentyl]amino]ethyl]azetidin-1-yl]ethanone]
18 | 100 to 130% | ≤ 100 nM | O=C(Cc1ccc(OCCCC2CCN(c3ncc(Cl)cn3)CC2)cc1F)N1CC(CNC[C@H](O)[C@H](O)[C@H](O)CO)C1 [Example 165, 2-[4-[3-[1-(5-chloropyrimidin-2-yl)-4-piperidyl]propoxy]-2-fluoro-phenyl]-1-[3-[[[(2S,3S,4R)-2,3,4,5-tetrahydroxypentyl]amino]methyl]azetidin-1-yl]ethanone]
19 | 100 to 130% | ≤ 100 nM | O=C(Cc1ccc(OCCCC2CCN(c3ncc(Cl)cn3)CC2)cc1F)N1CC(CNC[C@H](O)[C@@H](O)[C@H](O)CO)C1 [Example 166, 2-[4-[3-[1-(5-chloropyrimidin-2-yl)-4-piperidyl]propoxy]-2-fluoro-phenyl]-1-[3-[[[(2S,3R,4R)-2,3,4,5-tetrahydroxypentyl]amino]methyl]azetidin-1-yl]ethanone]
20 | 100 to 130% | ≤ 100 nM | O=C(Cc1ccc(OCCCC2CCN(c3ncc(Cl)cn3)CC2)cc1F)N1CC(CNC[C@@H](O)[C@H](O)[C@H](O)CO)C1 [Example 167, 2-[4-[3-[1-(5-chloropyrimidin-2-yl)-4-piperidyl]propoxy]-2-fluoro-phenyl]-1-[3-[[[(2R,38,4R)-2,3,4,5-tetrahydroxypentyl]amino]methyl]azetidin-1-yl]ethanone]
21 | 100 to 130% | ≤ 100 nM | O=C(Cc1ccc(OCCCC2CCN(c3ncc(Cl)cn3)CC2)cc1F)N1CC[C@H](CNC[C@H](O)[C@H](O)[C@H](O)CO)C1 [Example 168, 2-[4-[3-[1-(5-chloropyrimidin-2-yl)-4-piperidyl]propoxy]-2-fluoro-phenyl]-1-[(3R)-3-[[[(2S,3S,4R)-2,3,4,5-tetrahydroxypentyl]amino]methyl]pyrrolidin-1-yl]ethanone]
22 | 100 to 130% | ≤ 100 nM | O=C(NCCCS(=O)(=O)O)C1CN(C(=O)Cc2ccc(OCCCC3CCN(c4ncc(Cl)cn4)CC3)cc2F)C1 [Example 172, 3-[[1-[2-[4-[3-[1-(5-chloropyrimidin-2-yl)-4-piperidyl]propoxy]-2-fluoro-phenyl]acetyl]azetidine-3-carbonyl]amino]propane-1-sulfonic acid]
